Assay results from patent publication US20240352145A1, “EFFICACY OF ANTI-TROP-2-SN-38 ANTIBODY DRUG CONJUGATES FOR THERAPY OF TUMORS RELAPSED/REFRACTORY TO CHECKPOINT INHIBITORS” (Immunomedics, Inc., priority 2016, published 2024).

Columns and labels:
COLO 205 tumors = experiment: COLO 205 xenograft therapy; type: in vivo; conditions: for tumor volume (TV): 0.4 mg/kg, q4dx8, 28-day treatment period
[1] = weekly x 4 doses; Camptosar package insert; cited from earlier work
Capan-1 tumors = experiment: Capan-1 xenograft therapy; type: in vivo, mouse; conditions: for average tumor size: day 35, 0.4 mg SN-38/kg; for tumor volume (TV): day 49, 0.4 mg/kg SN-38; for tumor-free mice at end of study: day 140
Description: (§1) NCr female athymic nude (nu/nu) mice, 4 to 8 weeks old, and male Swiss-Webster mice, 10 weeks old, were purchased from Taconic Farms. Tolerability studies were performed in Cynomolgus monkeys (Macaca fascicularis; 2.5-4 kg male and female) by SNBL USA, Ltd. Animals were implanted subcutaneously with different human cancer cell lines. Tumor volume (TV) was determined by measurements in 2 dimensions using calipers, with volumes defined as: L×w^2/2, where L is the longest dimension of the tumor and w is the shortest. […] This dosing frequency reflected a consideration of the conjugate's serum half-life […], to allow a more continuous exposure to the ADC.
(§2) Statistics—Growth curves are shown as percent change in initial TV over time. Statistical analysis of tumor growth was based on area under the curve (AUC). Profiles of individual tumor growth were obtained through linear-curve modeling. An f-test was employed to determine equality of variance between groups before statistical analysis of growth curves. A 2-tailed t-test was used to assess statistical significance between the various treatment groups and controls, except for the saline control, where a 1-tailed t-test was used (significance at P≤0.05). Statistical comparisons of AUC were performed only up to the time that the first animal within a group was euthanized due to progression.

MDA-MB-468 TNBC tumors = experiment: MDA-MB-468 TNBC xenograft; type: in vivo, mouse; conditions: one animal each, tumors progressed to ~0.7 cm^3 on irinotecan
[2] = Irinotecan MTD and conversion in mice; type: in vivo, mouse
[3] = animals given irinotecan; Goldenberg et al., 2014; cited from earlier work
Calu-3 = Calu-3 xenograft therapy; type: in vivo, mouse; conditions: for tumor volume (TV): 0.04 mg SN-38/kg every 4 days x 4; for outcome: 0.4 mg/kg SN-38
[4] = mouse, in vivo
Text: Pharmacokinetics—Naive female NCr nude (nu/nu) mice, 8-10 weeks old, were purchased from Taconic Farms (Germantown, NY). […] ELISA was utilized to determine serum concentrations of total hRS7 IgG by competing for the binding to an anti-hRS7 IgG idiotype antibody with a horseradish peroxidase conjugate of hRS7. […] Pharmacokinetic (PK) parameters were computed by noncompartmental analysis using Phoenix WinNonlin software (version 6.3; Pharsight Corp., Mountainview, CA).

BxPC-3 [5] = experiment: ADCC activity of hRS7-ADC conjugates; type: cell-based, human; conditions: 33.3 nM; PBMC effector to target ratio 100:1
Text: PBMCs were purified from blood purchased from the Blood Center of New Jersey. A Trop-2-positive human pancreatic adenocarcinoma cell line (BxPC-3) was used as the target cell line with an effector to target ratio of 100:1.

Trop-2 = target: T1, Trop-2 (Homo sapiens, UniProt P09758); experiment: In vitro cell binding, multiple cell lines; parameters: endogenous in cells; host or cells: human cancer cell lines (ATCC)
T1 sequence (P09758 27-323): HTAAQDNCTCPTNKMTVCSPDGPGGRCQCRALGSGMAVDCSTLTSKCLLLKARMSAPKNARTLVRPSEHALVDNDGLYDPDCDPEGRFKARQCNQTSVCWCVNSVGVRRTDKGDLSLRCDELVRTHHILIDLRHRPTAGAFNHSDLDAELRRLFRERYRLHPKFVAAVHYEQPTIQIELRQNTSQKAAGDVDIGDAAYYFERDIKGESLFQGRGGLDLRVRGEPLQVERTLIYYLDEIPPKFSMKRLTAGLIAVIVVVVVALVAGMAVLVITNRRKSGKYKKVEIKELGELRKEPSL
Description: In Vitro Cell Binding—LumiGLO Chemiluminescent Substrate System (KPL, Gaithersberg, MD) was used to detect antibody binding to cells. Briefly, cells were plated into a 96 black-well, flat-clear-bottom plate overnight. Antibodies were serially diluted 1:2 and added in triplicate, yielding a concentration range from 0.03 to 66.7 nM. After incubating for 1 h at 4° C., the media was removed and the cells washed with fresh cold media followed by the addition of a 1:20,000 dilution of goat-antihuman horseradish peroxidase-conjugated secondary antibody (Jackson Immunoresearch, West Grove, PA) for 1 h at 4° C. The plates were again washed before the addition of the LumiGLO reagent. Plates were read for luminescence using an Envision plate reader (Perkin Elmer, Boston MA). Data were analyzed by non-linear regression to determine the equilibrium dissociation constant (KD). Statistical comparisons of KD-values were made with Prism GraphPad Software (v4.03) (Advanced Graphics Software, Inc.; Encinitas, CA) using an F-Test on the best-fit curves for the data. Significance was set at P<0.05.

[6] = test system: BxPC-3 human pancreatic tumors; experiment: BxPC-3 xenograft therapy; type: in vivo, mouse; conditions: day 21; equivalent amounts of ADC
Description: as §1, §2

[7] = test system: human gastric carcinoma xenograft, NCI-N87; experiment: NCI-N87 gastric carcinoma xenograft, Example 17; type: in vivo, mouse
Text: (§3) In Vivo Therapeutic Studies—NCr female athymic nude (nu/nu) mice, 4-8 weeks old, were purchased from Taconic Farms (Germantown, NY). NCI-N87 gastric tumor xenografts were established by harvesting cells from tissue culture and making a final cell suspension 1:1 in matrigel (BD Bioscience; San Jose, CA), with each mouse receiving a total of 1×10^7 cells s.c. in the right flank. For BxPC-3. xenografts of 1 g were harvested, and a tumor suspension made in HBSS to a concentration of 40% tumor w/v. This suspension was mixed 1:1 with matrigel for a final tumor suspension of 20% w/v. […] For IHC, tumors were allowed to grow to approximately 0.5 cm^3 before the mice were euthanized and the tumors removed, formalin-fixed and paraffin-embedded. For therapy studies, mice were randomized into treatment groups and therapy begun when tumor volumes were approximately 0.25 cm^3.
(§4) Mice were euthanized and deemed to have succumbed to disease once tumors grew to greater than 1.0 cm^3 in size. […] Time to progression (TTP) was determined as time post-therapy initiation when the tumor grew more than 20% in size from its nadir.
Survival studies were analyzed using Kaplan-Meier plots (log-rank analysis), using the Prism GraphPad Software (v4.03) software package (Advanced Graphics Software, Inc., Encinitas, CA).

[8] = test system: NCI-N87 human gastric tumor xenografts; experiment: Dose schedules and chronic dosing, NCI-N87 xenograft; type: in vivo, mouse; conditions: four cycles
Text: as §3, §4
A similar dose schedule experiment was performed in mice bearing NCI-N87 human gastric tumor xenografts (not shown). […] Likewise, in terms of overall survival, while all three dose schedules provided a significant survival benefit when compared to untreated control (P<0.0001), there were no differences between any of these three different schedules.
In all, four treatment cycles were administered to the animals.

BxPC-3 [9] = experiment: dsDNA breaks, γH2AX induction in BxPC-3; type: cell-based, human; conditions: BxPC-3, 20 μg/ml for 30 min
Description: Assessment of Double-Stranded DNA Breaks In Vitro—For drug activity testing, BxPC-3 cells were seeded in 6-well plates at 5×10^5 cells/well and held at 37° C. overnight. […] The following morning, cells were trypsinized briefly, spun down, stained with Fixable Viability Stain 450 (BD Biosciences, San Jose, CA), washed with 1% BSA-PBS, and then fixed in 4% formalin for 15 min, washed again and permeabilized in 0.15% Triton-X100 in PBS for another 15 min. After washing twice with 1% BSA-PBS, cells were incubated with mouse anti-γH2AX-AF488 (EMD Millipore Corporation, Temecula, CA) for 45 min at 4° C. The signal intensity of γH2AX was measured by flow cytometry using a BD FACSCanto (BD Biosciences, San Jose, CA).

[10] = in vivo; cited from earlier work
pancreatic cancer = experiment: PAM4 clinical trial, 90Y-hPAM4 with gemcitabine; type: in vivo, human; conditions: 22 CT-assessable patients
Description: In the ongoing PAM4 clinical trials, a four week clinical treatment cycle is performed. In week 1, subjects are administered a dose of ^111In-hPAM4, followed at least 2 days later by gemcitabine dose. In weeks 2, 3 and 4, subjects are administered a ^90Y-hPAM4 dose, followed at least 2 days later by gemcitabine (200 mg/m^2). Escalation started at 3×6.5 mCi/m^2. The maximum tolerated dose in front-line pancreatic cancer patients was 3×15 mCi/m^2 (hematologic toxicity is dose-limiting).

Capan-1 = experiment: Combination 90Y-hPAM4 RAIT + ADC, Capan-1 xenograft; type: in vivo, mouse
Text: Objective responses occurred in most animals, but they were more robust in both of the combination groups as compared to each agent given alone. […] These studies provide the first evidence that combined radioimmunotherapy and ADC enhances efficacy at safe doses.

[11] = 0.2 mg/kg SN-38 twice weekly x 4 weeks

CCc1c2c(nc3ccc(OC(=O)N4CCC(N5CCCCC5)CC4)cc13)-c1cc3c(c(=O)n1C2)COC(=O)[C@]3(O)CC [irinotecan, 7-ethyl-10-[4-(1-piperidino)-1-piperidino]carbonyloxycamptothecin]
efficacy of irinotecan at MTD (COLO 205 tumors; 24 mg SN-38/kg, q2dx5): as effective as hRS7-CL2-SN-38
grades 3 and 4 late diarrhea [1]: 31%
average tumor size (Capan-1 tumors): 1.78±0.62 cm^3
decrease in tumor size after re-treatment (MDA-MB-468 TNBC tumors): 23%
MTD ([2]; IV, single injection): 40 mg/kg
MTD ([2]; q2dx5): 24 mg SN-38/kg
share of total serum SN-38 that is glucuronidated [3]: > 50%

hRS7-CL2-SN-38
tumor volume (TV) (Calu-3): 0.14±0.22 cm^3
outcome (Calu-3): remained tumor-free until the end of the study on day 147
tumor growth vs untreated and hA20-CL2A-SN-38 (COLO 205 tumors; 0.4 mg/kg SN-38 twice weekly x 4 weeks): significantly inhibited tumor growth
tumor volume (TV) (COLO 205 tumors): 0.16±0.09 cm^3
tumor growth vs untreated and hA20-CL2A-SN-38 (Capan-1 tumors; [11]): significantly inhibited tumor growth
average tumor size (Capan-1 tumors): 0.04±0.05 cm^3
tumor volume (TV) (Capan-1 tumors): 0.17±0.18 cm^3
tumor-free mice at end of study (Capan-1 tumors; [11]): 40%

hRS7-NEM [reference compound]
half-life, Cmax, AUC, clearance, MRT vs parental hRS7 [4]: no significant differences
specific lysis (ADCC) (BxPC-3 [5]): no difference between hRS7-NEM and sacituzumab govitecan
KD (Trop-2): sub-nanomolar range

hLL2-CL2-SN-38 [reference compound]
tumor volume (TV) (Calu-3): 0.80±0.91 cm^3
outcome (Calu-3): tumors regrew

hA20-CL2-SN-38 [reference compound]
tumor volume (TV) (COLO 205 tumors): 1.19±0.59 cm^3
tumor volume (TV) (Capan-1 tumors): 0.80±0.68 cm^3

hRS7-Pro-2-PDox
specific lysis (ADCC) (BxPC-3 [5]): not significantly different

hA20-CL2A-SN-38 [reference compound]
tumor volume (TV) [6]: 1.05±0.73 cm^3
tumor-free mice at end of study (Capan-1 tumors; [11]): 20%
median survival time (MST) ([7]; 14 days for saline control): 24 days
mean time to progression (TTP) ([7]; mouse, in vivo): 4.1 ± 2.0 days
TTP ([8]; 0.5 mg once a week for two weeks, one week off): 4.7 ± 2.2 days
median survival ([8]; chronic dosing): 21 days
Percent Positive, γH2AX (BxPC-3 [9]; untreated 18.8 ± 6.3, listed as hA20-SN-38): 12.7 ± 2.4%
Mean Fluorescence Intensity, γH2AX (BxPC-3 [9]; untreated 2516 ± 191): 2246 ± 58

veltuzumab
immunogenicity in subjects [10]: less immunogenic in subjects than rituximab

B1: ^90Y-hPAM4 (conjugate, chains of the INN, looked up)
VH: QVQLQQSGAEVKKPGASVKVSCEASGYTFPSYVLHWVKQAPGQGLEWIGYINPYNDGTQYNEKFKGKATLTRDTSINTAYMELSRLRSDDTAVYYCARGFGGSYGFAYWGQGTLVTVSS
VL: DIQLTQSPSSLSASVGDRVTMTCSASSSVSSSYLYWYQQKPGKAPKLWIYSTSNLASGVPARFSGSGSGTDFTLTISSLQPEDSASYFCHQWNRYPYTFGGGTRLEIK
modifications: 90Y radiolabel
disease control rate (CR+PR+SD) (pancreatic cancer): 68%
partial responses (pancreatic cancer): 23%
stabilization as best response (pancreatic cancer): 45%
tumor-free mice after 20 weeks (Capan-1; 75 μCi 90Y-hPAM4 level, ADC alone, or their combination, n=10): 1 of 10
tumor-free animals (Capan-1; 130 μCi 90Y-hPAM4 level, n=10): 5 of 10

B2: hPAM4 (antibody, chains of the INN, looked up, V domains shown)
VH: B1 VH
VL: B1 VL
anti-tumor activity of unconjugated antibodies (Capan-1; given alone): Neither unconjugated hPAM4 nor hRS7 antibodies had anti-tumor activity
